Test results as given in patent EP4635945A1, “CRYSTAL FORM OF PROXIMOD, PREPARATION METHOD THEREFOR, AND USE THEREOF” (Jiankuan (Suzhou) Biotechnology Co., Ltd, priority 2022, dated 2024).
Entries after “also recorded” stand apart in the source; their conditions may differ.

What was measured:
Format in all cases: physicochemical
[1] = Mechanical stability: grinding in agate mortar, XRPD; conditions: 50 mg ground with an agate mortar for 5 minutes; hydrochloride
From the text: The samples before and after ground were detected by XRPD.

[2] = Intrinsic dissolution of tableted crystal forms; conditions: hydrochloride
[3] = Fluidity: angle of repose, bulk and tap density, Hausner ratio; conditions: hydrochloride
Procedure: This experiment was performed by using a tap density tester according to the fixed-volume method. The specific operations are as follows: The weighed powder, with a volume of 50 mL, was loaded into a graduated cylinder, and the graduated cylinder was secured onto a support. The graduated cylinder was set to be vibrated at 55 ± 5 vibrations per minute for 6-8 minutes. The volume change of the powder was measured in a measuring cup. The ratio of the weight of the powder to the volume (50 mL) before tapping is the bulk density of the powder, and the ratio of the weight of the powder to the volume after tapping is the tapped density of the powder.
The Hausner ratio and the compression degree were converted in the following methods. Hausner ratio = tap density/bulk density [formula] Compression degree = (tapdensity−bulkdensity)/tap density [formula]
This experiment was performed by a pouring method, and the angles of repose of the drug substances of the two crystal forms were measured in combination with a residual cone method to analyze their fluidities. The specific operations are as follows: The powder was poured onto the center of a disk with a specific diameter, and when the material on the slope of the powder pile began to flow freely out along the periphery of the disk, the pouring of the powder was stopped. The height (h) of the cone was measured, and the angle of repose was calculated in combination with the diameter (2r) of the disk, that is, tanQ = h/r.

[4] = Microscopic morphology and particle size; conditions: microscopy; hydrochloride
From the text: (§1) In the examples of the present application, the instrument used for the X-ray powder diffraction test is the D2 Phaser produced by Bruker. The instrument used for the differential scanning calorimetry test is the differential scanning calorimeter DSC 250 produced by TA Instruments. The instrument used for the thermogravimetric analysis is the thermogravimetric analyzer TGA 55 produced by TA Instruments. The instrument used for the FT-IR test is the Fourier infrared spectrometer ID1-summit produced by Thermo. The instrument used for the dynamic vapor sorption test is the DVS Intrinsic produced by Surface Measurement Systems (SMS). The instrument used for the microscopy is the microscope NJF-120A produced by Suzhou Nanguang Electronic Technology Co., Ltd.

[5] = Solid-state stability of crystal forms on storage (XRPD, purity); conditions: for Maximum single impurity after storage / Crystal form after storage / Main purity after storage: 30 days, exposed
Procedure: The crystal forms of the samples before and after storage were tested by XRPD.

[6] = Dynamic solubility in biorelevant media and buffers at 37 °C (HPLC, XRPD of solids); conditions: for solubility at 1 h / solubility at 4 h / solubility at 24 h / solubility at 2 h: thermodynamic from solid
Procedure: After 1 hour/2 hours/4 hours/24 hours, the saturated solutions were obtained by filtration. The actual concentrations of the samples in the saturated solutions were determined by high-performance liquid chromatography (HPLC) (the filtered solutions were diluted as needed), and the crystal forms of the solids before and after the experiment were characterized by XRPD to check whether phase changes occurred.

[7] = Adhesiveness: PE bag adhesive rate; conditions: flipped at 5 rpm, 10 minutes in each direction; hydrochloride
Procedure: The bags were sealed, flipped at a rotational speed of 5 rpm for 10 minutes, and continued to be flipped in a different flipping direction at a fixed rotational speed for 10 minutes. The materials were poured out of the bags, and the materials remaining in the bags were accurately weighed to calculate the adhesive rate.
The adhesive rate was calculated according to the following formula: Adhesive rate = (initialmaterialweight-remainingmaterialweight)/contact surface area. [formula]

[8] = Hygroscopicity by dynamic vapor sorption (DVS)
From the text: as §1

[9] = FaSSIF (pH of 8.0), 1 hour, hydrochloride
[10] = FaSSIF (pH of 8.0), 2 hours, hydrochloride
[11] = pH = 4.0 acetic acid-sodium acetate buffer, 2 hours, hydrochloride
[12] = pH = 6.8 phosphate buffer, 4 hours
[13] = pH = 6.8 phosphate buffer, 24 hours

CCCc1nc(-c2ccc(-c3ccc(CCC(N)(CO)CO)cc3)cc2)co1.Cl [Crystal form A, 2-amino-2-{2-(4'-(2-propyloxazol-4-yl)-[1,1'-biphenyl]-4-yl)ethyl}-1,3-propanediol hydrochloride]
Crystal form after ground (XRPD) [1]: remains unchanged
Dissolution amount ([2]; Medium Water, 5 min): 0.0005 mg/mL
Dissolution amount ([2]; Medium Water, 10 min): 0.0010 mg/mL
Dissolution amount ([2]; Medium Water, 30 min): 0.0011 mg/mL
Dissolution amount ([2]; Medium Water, 45 min): 0.0003 mg/mL
Dissolution amount ([2]; Medium Water, 60 min): 0.0010 mg/mL
Dissolution amount ([2]; Medium Water, 90 min): 0.0012 mg/mL
Dissolution amount ([2]; Medium pH = 4.0, flow rate 4 mL/minute, 5 min): 0.0346 mg/mL
Dissolution amount ([2]; Medium pH = 4.0, flow rate 4 mL/minute, 10 min): 0.0462 mg/mL
Dissolution amount ([2]; Medium pH = 4.0, flow rate 4 mL/minute, 30 min): 0.0481 mg/mL
Dissolution amount ([2]; Medium pH = 4.0, flow rate 4 mL/minute, 45 min): 0.0477 mg/mL
Dissolution amount ([2]; Medium pH = 4.0, flow rate 4 mL/minute, 60 min): 0.0487 mg/mL
Dissolution amount ([2]; Medium pH = 4.0, flow rate 4 mL/minute, 90 min): 0.0479 mg/mL
Compression degree ([3]; (tap density − bulk density)/tap density): 33.0% 33.0%
Bulk density ([3]; fixed-volume method, 50 mL): 0.34 g/mL
Tap density ([3]; fixed-volume method, after tapping): 0.50 g/mL
Angle of repose ([3]; pouring method with residual cone method): 56.25 °
Hausner ratio ([3]; tap density/bulk density): 1.5
Length/short diameter ratio [4]: 1-3
Microscopic morphology [4]: flaky
Maximum single impurity after storage ([5]; At 40 °C/75% RH): Maximum single impurity: 0.04 A%
Crystal form after storage ([5]; At 40 °C/75% RH, hydrochloride): Crystal form A
Main purity after storage ([5]; At 40 °C/75% RH, hydrochloride): Main purity: 99.82 A%
Maximum single impurity after storage ([5]; At 60 °C): Maximum single impurity: 0.04 A%
Crystal form after storage ([5]; At 60 °C, hydrochloride): Crystal form A
Main purity after storage ([5]; At 60 °C, hydrochloride): Main purity: 99.80 A%
Maximum single impurity after storage ([5]; At 92.5%RH): Maximum single impurity: 0.04 A%
Crystal form after storage ([5]; At 92.5%RH, hydrochloride): Crystal form A
Main purity after storage ([5]; At 92.5%RH, hydrochloride): Main purity: 99.81 A%
Maximum single impurity before storage ([5]; Before storage): Maximum single impurity: 0.04 A%
Main purity before storage ([5]; Before storage, hydrochloride): Main purity: 99.79 A%
Crystal form after storage ([5]; In light, hydrochloride): Crystal form A
Main purity after storage ([5]; In light, hydrochloride): Main purity: 98.83 A%
Maximum single impurity after storage ([5]; In light, hydrochloride): Maximum single impurity: 0.43 A%
Time the crystal form remains stable ([5]; at 60 °C, 92.5% RH, and 45 °C/75% RH): at least 30 days
Crystal form of the solid [6, 9]: A + Free alkali
Solubility [6, 9]: 0.022 mg/mL
Crystal form of the solid [6, 10]: A + Free alkali
Solubility [6, 10]: 0.024 mg/mL
Crystal form of the solid ([6]; FaSSIF (pH of 8.0), 4 hours): Free alkali
Solubility ([6]; FaSSIF (pH of 8.0), 4 hours, hydrochloride): 0.018 mg/mL
Crystal form of the solid ([6]; FaSSIF (pH of 8.0), 24 hours): Free alkali
Solubility ([6]; FaSSIF (pH of 8.0), 24 hours, hydrochloride): 0.016 mg/mL
Solubility ([6]; FeSSIF (pH of 5.0), 4 hours, hydrochloride): 0.34 mg/mL
Crystal form of the solid ([6]; FeSSIF (pH of 5.0), 24 hours): no crystal form change
Crystal form of the solid ([6]; SGF (pH of 1.0), 1 hour): A + F
Crystal form of the solid ([6]; SGF (pH of 1.0), 2 hours): A + F
Crystal form of the solid ([6]; SGF (pH of 1.0), 4 hours): A + F
Crystal form of the solid ([6]; SGF (pH of 1.0), 24 hours): A + F
Crystal form of the solid ([6]; Water, 1 hour, hydrochloride): A + F
Crystal form of the solid ([6]; Water, 2 hours, hydrochloride): A + F
Crystal form of the solid ([6]; Water, 4 hours, hydrochloride): A + F
Solubility ([6]; Water, 4 hours, hydrochloride): 0.99 mg/mL
Crystal form of the solid ([6]; Water, 24 hours, hydrochloride): A + F
solubility at 1 h ([6]; acetic acid-sodium acetate buffer, pH 4, aqueous buffer, pH = 4.0 acetic acid-sodium acetate buffer, 1 hour): 1.69 mg/mL
solubility at 4 h ([6]; acetic acid-sodium acetate buffer, pH 4, aqueous buffer, pH = 4.0 acetic acid-sodium acetate buffer, 4 hours): 1.36 mg/mL
solubility at 24 h ([6]; acetic acid-sodium acetate buffer, pH 4, aqueous buffer, pH = 4.0 acetic acid-sodium acetate buffer, 24 hours): 4.11 mg/mL
solubility at 1 h ([6]; fed state simulated intestinal fluid (FeSSIF), pH 5, fessif, FeSSIF (pH of 5.0), 1 hour): 1.93 mg/mL
solubility at 2 h ([6]; fed state simulated intestinal fluid (FeSSIF), pH 5, fessif, FeSSIF (pH of 5.0), 2 hours): 2.11 mg/mL
solubility at 24 h ([6]; fed state simulated intestinal fluid (FeSSIF), pH 5, fessif, FeSSIF (pH of 5.0), 24 hours): 3.72 mg/mL
solubility at 1 h ([6]; hydrochloric acid aqueous solution, pH 1, simulated gastric fluid, pH = 1.0 hydrochloric acid aqueous solution, 1 hour): 0.28 mg/mL
solubility at 2 h ([6]; hydrochloric acid aqueous solution, pH 1, simulated gastric fluid, pH = 1.0 hydrochloric acid aqueous solution, 2 hours): 0.28 mg/mL
solubility at 4 h ([6]; hydrochloric acid aqueous solution, pH 1, simulated gastric fluid, pH = 1.0 hydrochloric acid aqueous solution, 4 hours): 0.33 mg/mL
solubility at 24 h ([6]; hydrochloric acid aqueous solution, pH 1, simulated gastric fluid, pH = 1.0 hydrochloric acid aqueous solution, 24 hours): 0.4 mg/mL
Crystal form of the solid ([6]; pH = 1.0 hydrochloric acid aqueous solution, 1 hour): A + F
Crystal form of the solid ([6]; pH = 1.0 hydrochloric acid aqueous solution, 2 hours): A + F
Crystal form of the solid ([6]; pH = 1.0 hydrochloric acid aqueous solution, 4 hours): A + F
Crystal form of the solid ([6]; pH = 1.0 hydrochloric acid aqueous solution, 24 hours): A + F
Crystal form of the solid ([6]; pH = 4.0 acetic acid-sodium acetate buffer, 1 hour, hydrochloride): A + F
Crystal form of the solid [6, 11]: A + F
Solubility [6, 11]: 1.13 mg/mL
Crystal form of the solid ([6]; pH = 4.0 acetic acid-sodium acetate buffer, 4 hours, hydrochloride): A + F
Crystal form of the solid ([6]; pH = 4.0 acetic acid-sodium acetate buffer, 24 hours, hydrochloride): A + F
Crystal form of the solid ([6]; pH = 6.8 phosphate buffer, 1 hour): Free alkali
Crystal form of the solid ([6]; pH = 6.8 phosphate buffer, 2 hours): Free alkali
Solubility ([6]; pH = 6.8 phosphate buffer, 2 hours, hydrochloride): Not detected
Crystal form of the solid [6, 12]: Free alkali
Solubility [6, 12]: Not detected
Crystal form of the solid [6, 13]: Free alkali
Solubility [6, 13]: Not detected
solubility at 1 h ([6]; phosphate buffer, pH 6.8, aqueous buffer, pH = 6.8 phosphate buffer, 1 hour): 0.00016 mg/mL
solubility at 1 h ([6]; simulated gastric fluid (SGF), pH 1, simulated gastric fluid, SGF (pH of 1.0), 1 hour): 0.26 mg/mL
solubility at 2 h ([6]; simulated gastric fluid (SGF), pH 1, simulated gastric fluid, SGF (pH of 1.0), 2 hours): 0.25 mg/mL
solubility at 4 h ([6]; simulated gastric fluid (SGF), pH 1, simulated gastric fluid, SGF (pH of 1.0), 4 hours): 0.28 mg/mL
solubility at 24 h ([6]; simulated gastric fluid (SGF), pH 1, simulated gastric fluid, SGF (pH of 1.0), 24 hours): 0.46 mg/mL
solubility at 1 h ([6]; water, 1 hour): 2.02 mg/mL
solubility at 2 h ([6]; water, 2 hours): 2.57 mg/mL
solubility at 24 h ([6]; water, 24 hours): 3.29 mg/mL
PE bag adhesive rate [7]: 0.0007 g/cm^2
Weight gain by water absorption (DVS) ([8]; 24.4 °C/90% RH): 0.06%
Hygroscopicity description ([8]; DVS, 90% RH, hydrochloride): no or almost no hygroscopicity; also recorded: slightly hygroscopic
Weight gain by water absorption (DVS) ([8]; vapor sorption at 25 °C/90% RH): 0.26%
